Data from patent publication US8093386B2, “Thioaryl substituted inhibitors of zinc proteases and their use” (Bracco Imaging S.p.A, priority 2006, dated 2012).

Columns and labels:
Type in all cases: biochemical
MMP-9 = biological target: T1, MMP-9 (Homo sapiens, UniProt P14780); assay: In vitro fluorometric inhibition assay of MMPs: MMP-9
T1 construct: gift of Prof; Gillian Murphy (Oncology Department, Cambridge University, UK)
Protocol: (§1) Analysis of the In Vitro Inhibition Activity of Zinc Metalloproteinases: In Vitro Inhibition of MMMPs
The human recombinant Progelatinase A (pro-MMP-2), B (pro-MMP-9), MMP-14cd and MMP-16cd, were provided by Prof. Gillian Murphy (Oncology Department, Cambridge University, UK); pro-MMP-1, pro-MMP-3, pro-MMP-7, pro-MMP-8, pro-MMP-13 and pro-MMP-14 were bought from Calbiochem. […] Pro-MMP-14 and pro-MMP-3 were activated with trypsin 5 μg/ml for 15 min at 37° C. followed the soybean trypsin inhibitor (SBTI) 23 μg/ml for pro-MMP-14 and 62 μg/ml for pro-MMP-3. The catalytic domains of MMP-14 and MMP-16 were utilized without activation.
For the assay measurements, the stock solutions of the inhibitor (DMSO, 100 mM) were further diluted up to 7 different concentrations (0.01 nM-300 μM) for each MMP, in the buffer for the fluorometric assay (FAB: Tris 50 mM, pH=7.5, NaCl 150 mM, CaCl2 10 mM, Brij 35 0.05% and DMSO 1%). […] After the addition of solution of fluorogenic substrate 200 μM Mca-Arg-Pro-Lys-Pro-Val-Glu-Nva-Trp-Arg-Lys(Dnp)-NH2 (Sigma) for MMP-3 and Mca-Lys-Pro-Leu-Gly-Leu-Dpa-Ala-Arg-NH2 (Bachem) for all the other enzymes in DMSO (final concentration 2 μM), the hydrolysis were monitored every 15 sec for 20 min, recording the increase in fluorescence (λex=325 nm, λem=400 nm) with a Molecular Device SpectraMax Gemini XS plates reader. The assays were made in triplicate in a total volume of 200 μl per well on 96 well-plates for microtitolation (Corning, black, NBS). The control wells were without inhibitor.
(§2) The inhibition activity of MMP was expressed in relative fluorescence unit (RFU). The percentage of inhibition was calculated using control reactions without inhibitor.
(§3) IC50 was determined using the formula: Vi/Vo=1/(1+[I]/IC50), wherein Vi is the initial rate of the substrate scission in presence of the inhibitor at the concentration [I] and Vo is the initial rate in the absence of inhibitor. The results were analyzed with the SoftMax Pro software and the GraFit software.

MMP-1 = biological target: T2, MMP-1 (Homo sapiens, UniProt P03956); assay: In vitro fluorometric inhibition assay of MMPs: MMP-1; conditions: Table I
T2 construct: purchased Calbiochem
T2 sequence (P03956 100-469): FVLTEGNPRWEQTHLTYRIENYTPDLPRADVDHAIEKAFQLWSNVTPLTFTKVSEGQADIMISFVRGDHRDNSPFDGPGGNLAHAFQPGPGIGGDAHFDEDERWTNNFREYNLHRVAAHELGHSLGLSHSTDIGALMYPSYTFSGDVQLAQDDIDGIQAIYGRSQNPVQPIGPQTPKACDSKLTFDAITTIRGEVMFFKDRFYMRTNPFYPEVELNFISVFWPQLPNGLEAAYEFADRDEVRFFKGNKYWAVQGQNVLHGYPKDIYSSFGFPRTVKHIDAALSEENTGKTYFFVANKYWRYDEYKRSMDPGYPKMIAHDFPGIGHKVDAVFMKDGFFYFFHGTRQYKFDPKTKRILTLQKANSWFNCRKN
Protocol: as §1
(§4) The human recombinant Progelatinase A (pro-MMP-2), B (pro-MMP-9), MMP-14cd and MMP-16cd, were provided by Prof. Gillian Murphy (Oncology Department, Cambridge University, UK); pro-MMP-1, pro-MMP-3, pro-MMP-7, pro-MMP-8, pro-MMP-13 and pro-MMP-14 were bought from Calbiochem. The proenzymes were activated immediately before the use with p-aminophenylmercuric acetate (APMA 2 mM for 1 h at 37° C. for MMP-1, MMP-2 and MMP-8, 1 mM for 1 h at 37° C. for MMP-9 and MMP-7, 1 mM for 30 min at 37° C. for MMP-13). Pro-MMP-14 and pro-MMP-3 were activated with trypsin 5 μg/ml for 15 min at 37° C. followed the soybean trypsin inhibitor (SBTI) 23 μg/ml for pro-MMP-14 and 62 μg/ml for pro-MMP-3. The catalytic domains of MMP-14 and MMP-16 were utilized without activation.
(§5) For the assay measurements, the stock solutions of the inhibitor (DMSO, 100 mM) were further diluted up to 7 different concentrations (0.01 nM-300 μM) for each MMP, in the buffer for the fluorometric assay (FAB: Tris 50 mM, pH=7.5, NaCl 150 mM, CaCl2 10 mM, Brij 35 0.05% and DMSO 1%). The solutions of activated enzyme (final concentrations 2.9 nM for MMP-2, 2.7 nM for MMP-9, 2.4 nM for MMP-7, 1 nM for MMP-14 and MMP-3, 1.5 nM for MMP-8 and MMP-16cd, 0.84 nM for MMP-14cd, 0.66 nM for MMP-13 and 0.20 nM for MMP-1) and of inhibitor were incubated in the assay buffer for 4 h at 25° C. After the addition of solution of fluorogenic substrate 200 μM Mca-Arg-Pro-Lys-Pro-Val-Glu-Nva-Trp-Arg-Lys(Dnp)-NH2 (Sigma) for MMP-3 and Mca-Lys-Pro-Leu-Gly-Leu-Dpa-Ala-Arg-NH2 (Bachem) for all the other enzymes in DMSO (final concentration 2 μM), the hydrolysis were monitored every 15 sec for 20 min, recording the increase in fluorescence (λex=325 nm, λem=400 nm) with a Molecular Device SpectraMax Gemini XS plates reader. The assays were made in triplicate in a total volume of 200 μl per well on 96 well-plates for microtitolation (Corning, black, NBS). The control wells were without inhibitor.
as §2, §3

TACE (ADAM17) = biological target: T3, TACE (ADAM17) (Homo sapiens, UniProt P78536); assay: Inhibition of ADAMs: activity on TACE (ADAM17), fluorometric assay
T3 construct: purchased CalBiochem
T3 sequence (P78536 215-671 limits assumed): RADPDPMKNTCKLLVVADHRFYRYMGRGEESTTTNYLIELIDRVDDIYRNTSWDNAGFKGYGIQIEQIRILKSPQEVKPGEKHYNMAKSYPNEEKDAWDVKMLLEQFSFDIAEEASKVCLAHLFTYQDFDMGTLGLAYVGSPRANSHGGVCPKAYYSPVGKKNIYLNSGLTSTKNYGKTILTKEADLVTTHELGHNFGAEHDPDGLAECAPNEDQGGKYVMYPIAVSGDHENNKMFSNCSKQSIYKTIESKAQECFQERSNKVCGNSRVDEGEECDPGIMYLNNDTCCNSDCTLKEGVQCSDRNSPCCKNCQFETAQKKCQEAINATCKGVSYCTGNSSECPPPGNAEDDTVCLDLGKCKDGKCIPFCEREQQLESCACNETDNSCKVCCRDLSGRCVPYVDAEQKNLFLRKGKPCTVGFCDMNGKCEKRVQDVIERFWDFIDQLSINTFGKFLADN
Protocol: Inhibition of ADAMS: Activity on TACE (ADAM17) Method 1: (only TACE)
The human recombinant TACE, from CalBiochem, was dissolved in FAB buffer (Tris 50 mM, pH=7.5, NaCl 150 mM, CaCl2 10 mM, Brij 35 0.05% and DMSO 1%) at the concentration of 200 μg/mL (2.85 μM) as stock solution. For the assay measurements, the stock solutions of the inhibitor (DMSO, 100 mM) were further diluted up to seven different concentrations (0.01 nM-300 μM) in FAB buffer. A solution of the enzyme (final concentration 3 nM) and the solutions of the inhibitors at different concentrations were incubated in FAB for 20 minutes at 25° C. After the addition of a 200 μM solution of the substrate Mca-Lys-Pro-Leu-Gly-Leu-Dap(Dnp)-Ala-Arg-NH2 (Bachem) in DMSO (final concentration 2 μM), the hydrolysis was monitored for 20 min, recording the increase in fluorescence (λex=325 nm, λem=400 nm) using a Molecular Device SpectraMax Gemini XS plates reader. The assays were made in triplicate in a total volume of 200 μl per well, on 96 well microplates (Corning, black, NBS). The inhibition activity of TACE was expressed in relative fluorescent units (RFU). The percentage of inhibition was calculated based in respect to the blanks control without inhibitor. The IC50 was determined following the equation: Vi/Vo=1/(1+[I]/IC50), where Vi is the initial rate of the hydrolysis of the substrate in the presence of the inhibitor at the concentration [I] and Vo is the initial rate in the absence of inhibitor. The results were analysed using the software SoftMax Pro and GraFit.

MMP-2 = biological target: T4, MMP-2 (Homo sapiens, UniProt P08253); assay: In vitro fluorometric inhibition assay of MMPs: MMP-2
T4 construct: gift of Prof; Gillian Murphy (Oncology Department, Cambridge University, UK)
T4 sequence (P08253 110-660): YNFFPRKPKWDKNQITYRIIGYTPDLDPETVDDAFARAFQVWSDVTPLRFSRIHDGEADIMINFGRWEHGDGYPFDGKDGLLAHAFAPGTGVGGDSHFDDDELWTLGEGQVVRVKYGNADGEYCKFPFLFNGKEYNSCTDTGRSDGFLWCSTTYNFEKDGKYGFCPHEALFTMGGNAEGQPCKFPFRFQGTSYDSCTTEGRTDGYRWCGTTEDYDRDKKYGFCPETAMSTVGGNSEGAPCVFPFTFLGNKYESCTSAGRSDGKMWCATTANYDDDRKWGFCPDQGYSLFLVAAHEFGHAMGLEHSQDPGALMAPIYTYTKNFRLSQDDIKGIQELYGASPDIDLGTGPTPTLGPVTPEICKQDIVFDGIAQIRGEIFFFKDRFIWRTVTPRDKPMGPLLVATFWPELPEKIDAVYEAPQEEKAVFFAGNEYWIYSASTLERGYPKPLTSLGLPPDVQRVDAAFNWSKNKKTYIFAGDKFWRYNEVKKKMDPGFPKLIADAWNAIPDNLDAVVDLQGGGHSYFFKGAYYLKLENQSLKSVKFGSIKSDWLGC
Protocol: as §1, §4, §5, §2, §3

T1 sequence (P14780 107-707 limits assumed): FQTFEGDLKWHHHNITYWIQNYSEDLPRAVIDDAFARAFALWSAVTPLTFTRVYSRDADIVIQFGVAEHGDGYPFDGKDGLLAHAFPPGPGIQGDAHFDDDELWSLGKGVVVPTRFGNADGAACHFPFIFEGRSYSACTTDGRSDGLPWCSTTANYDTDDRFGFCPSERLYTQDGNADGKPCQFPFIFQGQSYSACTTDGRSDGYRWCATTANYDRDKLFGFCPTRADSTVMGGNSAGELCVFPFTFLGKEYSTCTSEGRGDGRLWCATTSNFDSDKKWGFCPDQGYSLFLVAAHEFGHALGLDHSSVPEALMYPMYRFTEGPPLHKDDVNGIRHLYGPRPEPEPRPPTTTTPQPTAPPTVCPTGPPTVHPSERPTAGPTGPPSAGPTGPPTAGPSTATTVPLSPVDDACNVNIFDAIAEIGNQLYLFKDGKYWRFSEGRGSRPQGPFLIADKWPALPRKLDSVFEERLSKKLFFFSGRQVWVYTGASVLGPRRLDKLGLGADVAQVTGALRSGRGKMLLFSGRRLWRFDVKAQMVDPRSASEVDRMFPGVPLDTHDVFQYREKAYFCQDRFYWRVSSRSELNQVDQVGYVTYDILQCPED

Structure (SMILES) | IC50 (TACE (ADAM17); Table IV) | IC50 (MMP-9; Table I, cells without (*)) | IC50 (MMP-1; cells without (*)) | IC50 (MMP-2; Table I, cells without (*)) | further results
COc1ccc(-c2ccc(Sc3ccccc3CC(=O)NO)cc2)cc1 [Compound 24, N-hydroxy-2-(2-(4′-methoxybiphenyl-4-ylthio)phenyl)acetamide] | 46.2 ± 5.34 µM | – | – | – | IC50 (MMP-9; Table I, cells marked (*)): 0.12 ± 0.017 µM; IC50 (MMP-9; Table IV): 0.12 ± 0.017 µM; IC50 (MMP-2; Table I, cells marked (*)): 0.0068 ± 0.00053 µM; IC50 (MMP-2; Table IV): 0.0068 ± 0.00053 µM
O=C(O)CC(C(=O)O)c1ccccc1Sc1ccc(-c2ccccc2)cc1 (stereo not shown) | – | 95 ± 8.7 µM | 189 ± 28 µM | 11 ± 1.1 µM | –
CC#CCOc1ccc(Sc2ccccc2CC(=O)NO)cc1 [Compound 21c, 2-(2-(4-(but-2-iniloxy)phenylthio)phenyl)-N-hydroxyacetamide] | – | – | – | – | IC50 (TACE (ADAM17); text b547): 0.462 ± 0.021 µM; IC50 (MMP-2; text b547): 1.45 ± 0.033 µM
O=C1CC(c2ccccc2S(=O)(=O)c2ccc(-c3ccccc3)cc2)C(=O)N1O (stereo not shown) | – | 47 ± 2.7 µM | 186 ± 8 µM | 7 ± 0.5 µM | –
O=C(O)Cc1ccccc1Sc1ccc(-c2ccccc2)cc1 | – | 6.7 ± 0.3 µM | 334 ± 5.7 µM | 0.33 ± 0.026 µM | –
O=C(O)CCC(C(=O)O)c1ccccc1Sc1ccc(-c2ccccc2)cc1 (stereo not shown) | – | 17 ± 0.96 µM | 190 ± 10 µM | 1.8 ± 0.16 µM | –
O=C1CC(c2ccccc2Sc2ccc(-c3ccccc3)cc2)C(=O)N1O (stereo not shown) | – | 35 ± 2.7 µM | 83 ± 11 µM | 12 ± 0.8 µM | –

Continued, in another order:

IC50 (TACE (ADAM17); Table IV) | IC50 (MMP-9; Table I, cells without (*)) | IC50 (MMP-1; cells without (*)) | IC50 (MMP-2; Table I, cells without (*)) | Structure (SMILES) | further results
13.4 ± 1.93 µM | – | – | – | O=C(Cc1ccccc1Sc1ccc(-c2ccccc2)cc1)NO [Compound 21a] | IC50 (MMP-9; Table I, cells marked (*)): 1.2 ± 0.2 µM; IC50 (MMP-1; cells marked (*)): 171 ± 5 µM; IC50 (MMP-2; Table I, cells marked (*)): 0.0411 ± 0.0014 µM
10.2 ± 0.67 µM | – | – | – | COc1ccc(Sc2ccccc2CC(=O)NO)cc1 [Compound 21b, N-hydroxy-2-(2-(4-methoxyphenylthio)phenyl)acetamide] | IC50 (MMP-2; Table IV): 6.2 ± 0.3 µM
